What was measured:
human AT1 receptor = biological target: T1, human AT1 receptor (Homo sapiens, UniProt P30556); test: AT1 functional assay (FLIPR Ca efflux, Angiotensin-II at EC80); assay type: cell-based; conditions: CHO cells over-expressing full length human AT1 receptor; Angiotensin-II as agonist at EC80
T1 construct: CHO cell stably over-expressing the full length human AT1 receptor; expressed in transfected cells
T1 sequence (P30556 1-359): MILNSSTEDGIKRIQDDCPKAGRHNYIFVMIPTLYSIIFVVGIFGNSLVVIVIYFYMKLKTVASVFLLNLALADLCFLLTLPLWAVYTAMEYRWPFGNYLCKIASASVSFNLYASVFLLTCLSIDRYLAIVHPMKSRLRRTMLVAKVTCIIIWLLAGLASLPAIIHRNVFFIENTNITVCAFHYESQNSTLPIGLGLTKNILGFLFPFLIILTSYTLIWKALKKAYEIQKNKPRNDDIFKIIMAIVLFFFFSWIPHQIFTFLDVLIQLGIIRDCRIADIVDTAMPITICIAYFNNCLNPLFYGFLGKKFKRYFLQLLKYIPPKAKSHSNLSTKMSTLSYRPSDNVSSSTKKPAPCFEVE
Protocol: CHO cell stably over-expressing the full length human AT1 receptor was cultured in DMEM (Gibco) with 10% FCS (Hyclone) and selection maintained using 0.5 mg/ml G418 (Gibco). Cell at 70% confluence were trypsnised, resuspended in media and counted. 20,000 cells/well were plated into black polystyrene 384-well plates with transparent bottoms and allowed 16 hours to adhere. The cells were loaded with Flou-4 (TEFLABS, USA) dye in HBSS (Gibco) for 1 hour and then washed in HBSS and 0.6 μl of diluted compounds in DMSO added to the cells in 30 μd of HBSS in Multimek liquid handling system (Beckman, USA). The cells were then placed in the Fluorometric Imaging Plate Readers (FLIPR, Molecular Devices, USA) and 20 μl of Angiotensin-II peptide as agonist (at EC80) in HBSS was added in the instrument.
(§1) The Ca efflux was followed for 2 mins and the maximum height of the peak was measured at various compound concentrations and plotted according to the equation
(§2) and IC50 estimated wherein A is the bottom plateau of the curve i.e. the final minimum y value B is the top of the plateau of the curve i.e. the final maximum y value C is the x value at the middle of the curve. This represents the log EC50 value when A+B=100 D is the slope factor. x is the original known x values. y is the original known y values.

human ETA receptor = biological target: T2, human ETA receptor (Homo sapiens, UniProt P25101); test: ETA functional assay (FLIPR Ca efflux, Endothelin-1 at EC80); assay type: cell-based; conditions: CHO cells over-expressing full length human ETA receptor; Endothelin-1 as agonist at EC80
T2 construct: CHO cell stably over-expressing the full length human ETA receptor; expressed in transfected cells
T2 sequence (P25101 21-427): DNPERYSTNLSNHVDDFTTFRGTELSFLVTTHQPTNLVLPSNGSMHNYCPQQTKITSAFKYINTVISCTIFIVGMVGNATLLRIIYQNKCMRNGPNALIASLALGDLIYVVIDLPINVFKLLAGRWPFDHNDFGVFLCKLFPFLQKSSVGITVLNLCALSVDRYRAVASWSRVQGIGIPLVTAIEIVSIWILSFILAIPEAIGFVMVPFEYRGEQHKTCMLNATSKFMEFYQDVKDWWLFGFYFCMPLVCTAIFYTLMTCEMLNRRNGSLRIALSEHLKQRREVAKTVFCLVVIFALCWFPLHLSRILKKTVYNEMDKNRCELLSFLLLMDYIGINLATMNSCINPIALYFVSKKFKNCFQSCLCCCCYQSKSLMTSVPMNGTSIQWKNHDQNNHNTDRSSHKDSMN
Protocol: CHO cell stably over-expressing the full length human ETA receptor was cultured in DMEM (Gibco) with 10% FCS (Hyclone) and selection maintained using 0.5 mg/ml G418 (Gibco). Cell at 70% confluence were trypsnised, resuspended in media and counted. 20,000 cells/well were plated into black polystyrene 384-well plates with transparent bottoms and allowed 16 hours to adhere. The cells were loaded with Flou-4 (TEFLABS, USA) dye in BSS (Gibco) for 1 hour and then washed in HBSS and 0.6 μl of diluted compounds in DMSO added to the cells in 30 μl of HBSS in Multimek liquid handling system (Beckman, USA). The cells were then placed in the Fluorometric Imaging Plate Readers (FLIPR, Molecular Devices, USA) and 20 μl of Endothelin-1 peptide as agonist in HBSS (at EC80) was added in the instrument.
as §1, §2

SMILES: CCc1nc(C)cc2c1c(CC)nn2Cc1ccc(-c2cc(C)sc2S(=O)(=O)Nc2noc(C)c2C)c(COC)c1 [Example 38, 3-[4-(3,4-Diethyl-6-methyl-pyrazolo[4,3-c]pyridin-1-ylmethyl)-2-methoxymethyl-phenyl]-5-methyl-thiophene-2-sulfonic acid (4,5-dimethyl-isoxazol-3-yl)-amide]
- IC50 (human AT1 receptor): 17.2 nM
- IC50 (human ETA receptor): 1040 nM

SMILES: CCOc1cc(=O)n(Cc2ccc(-c3cc(C)sc3S(=O)(=O)Nc3noc(C)c3C)c(C)c2)c2cc(CC)nc(CC)c12 [Example 39, 3-[4-(4-Ethoxy-5,7-diethyl-2-oxo-2H-[1,6]naphthyridin-1-ylmethyl)-2-methyl-phenyl]-5-methyl-thiophene-2-sulfonic acid (4,5-dimethyl-isoxazol-3-yl)-amide]
- IC50 (human AT1 receptor): 25.1 nM
- IC50 (human ETA receptor): 781 nM
